Measurements published in patent publication US9278941B2, “Azole derivative and uses thereof” (Kureha Corporation, priority 2011, dated 2016).
Like-named read-outs stand apart in the source and are kept apart here.

How the values were obtained:
Botrytis cinerea [1] = test: Gray mold disease control effect on cucumbers, foliar spray treatment; type: in vivo; conditions: cucumber gray mold, wettable powder foliar spray 1,000 L/ha, four days after inoculation
powdery mildew = test: Powdery mildew control effect on wheat, foliar spray treatment; type: in vivo; conditions: wettable powder foliar spray 1,000 L/ha, seven days after inoculation
wheat leaf rust = test: Rust control effect on wheat, foliar spray treatment; type: in vivo; conditions: wettable powder foliar spray 1,000 L/ha, twelve days after inoculation
wheat brown rust = test: Brown rust control effect on wheat, seed treatment; type: in vivo; conditions: sixteen days after inoculation
Experimental: A pot test was performed to evaluate the brown rust controlling effect on wheat using seed treatment. Compound (1(−)) or Compound (1(+)) was dissolved in DMSO so the treatment amount was 20 g ai/100 kg seeds or 2 g ai/100 kg seeds, and the solution was smeared on wheat seeds in a vial, and eight wheat seeds were seeded in a 80 cm^2 pot. These were irrigated from below in a greenhouse. Fifteen days after seeding, the seedlings were inoculated with wheat brown rust and then kept for two days in a box. These were again irrigated from below in a greenhouse.

Phaeosphaeria nodorum = test: Antifungal test for pathogens (PDA plate), P.n; type: cell-based; conditions: PDA plate medium
[2] = tested on: Pseudocercoporella herpotrichoides; test: Antifungal test for pathogens (PDA plate), P.h; type: cell-based; conditions: PDA plate medium
Microdochium nivale = test: Antifungal test for pathogens (PDA plate), M.n; type: cell-based; conditions: PDA plate medium
Gaeumannomyces graminis = test: Antifungal test for pathogens (PDA plate), G.g; type: cell-based; conditions: PDA plate medium
Fusarium graminearum = type: cell-based; conditions: PDA plate medium
Ustilago nuda = test: Antifungal test for pathogens (PDA plate), U.n; type: cell-based; conditions: PDA plate medium
Pyricularia oryzae = type: cell-based; conditions: PDA plate medium
Rhizoctonia solani = test: Antifungal test for pathogens (PDA plate), R.s; type: cell-based; conditions: PDA plate medium
Gibberella fujikuroi = test: Antifungal test for pathogens (PDA plate), G.f; type: cell-based; conditions: PDA plate medium
Rhizopus oryzae = test: Antifungal test for pathogens (PDA plate), R.o; type: cell-based; conditions: PDA plate medium
Alternaria alternata = test: Antifungal test for pathogens (PDA plate), A.m; type: cell-based; conditions: PDA plate medium
Sclerotinia sclerotiorum = test: Antifungal test for pathogens (PDA plate), S.s; type: cell-based; conditions: PDA plate medium
Botrytis cinerea [3] = test: Antifungal test for pathogens (PDA plate), B.c; type: cell-based; conditions: PDA plate medium
Glomerella cingurata = test: Antifungal test for pathogens (PDA plate), G.c; type: cell-based; conditions: PDA plate medium
Fusarium oxysporum = test: Antifungal test for pathogens (PDA plate), F.c; type: cell-based; conditions: PDA plate medium
Pyrenophora graminea = test: Antifungal test for pathogens (PDA plate), P.g; type: cell-based; conditions: PDA plate medium
Penicillium italicum = test: Antifungal test for pathogens (PDA plate), P.i; type: cell-based; conditions: PDA plate medium
Cercospora beticola = test: Antifungal test for pathogens (PDA plate), C.b; type: cell-based; conditions: PDA plate medium
Rhynchosporium secalis = test: Antifungal test for pathogens (PDA plate), R.sec; type: cell-based; conditions: PDA plate medium
wheat = test: Phytotoxicity evaluation of growth inhibition of wheat seeds, seed treatment; type: in vivo; conditions: fifteen days after seeding, untreated 21 cm
Experimental: A pot test was used to perform a phytotoxicity evaluation of growth inhibition using a seed treatment. Compound (1(−)) or Compound (1(+)) was dissolved in DMSO so the treatment amount was 2 or 20 g ai/100 kg seeds, and the solution was smeared on wheat seeds in a vial, and eight wheat seeds were seeded in a 80 cm^2 pot. These were irrigated from below in a greenhouse. Fifteen days after seeding, the length of the wheat was evaluated.

[4] = tested on: various pathogenic filamentous fungi other than wheat leaf blight; type: cell-based; conditions: 10 mg/L, PDA plate; all 13 fungi: wheat blight, barley stripe, wheat fusarium, barley loose smut, rice blast, rice sheath blight, rice bakanae, apple leaf spot, Botrytis cinerea, cucumber vine crack, citrus blue mold, sugar beet brown spot, barley cloud fungus
[5] = tested on: Wheat leaf blight (Septoria tritici); test: Antifungal test against wheat leaf blight (PDA plate); conditions: 19 days at 25° C.
Experimental: Wheat leaf blight (Septoria tritici) cultured beforehand in a medium plate was punched out with a 4 mm-diameter cork borer, and inoculated in the plate media containing the agent. After inoculation, they were cultured for 19 days at 25° C., and the growth of the fungus was determined by the diameter of the growth. The growth rate of the fungus in the plate media containing the agent was compared to the growth rate of the fungus in the plate medium not containing the agent, and the filamentous fungi inhibition rate was determined using the following equation. In the equation, R is the filamentous fungi inhibition rate (%), dc is the diameter of the fungal growth in the untreated plate media, and dt is the diameter of the fungal growth in the treated plate media. R=100(dc−dt)/dc

wheat leaf blight = test: Leaf blotch control effect on wheat, foliar spray treatment; conditions: wettable powder foliar spray 1,000 L/ha, thirty days after inoculation
Experimental: After blow drying the sprayed leaves, the plants were sprinkled and inoculated with wheat leaf blight. Thirty days after inoculation, the morbidity of the wheat to powdery mildew was evaluated according to the criteria shown in Table 3, and the preventative value was calculated using the following equation. When the average morbidity of the sprayed plot was higher than the average morbidity of the unsprayed plot, the preventative value was 0%. Preventative value (%)=(1−(average morbidity of the sprayed plot/average morbidity of the unsprayed plot))×100.

COC(=O)[C@]1(C)CC[C@H](Cc2ccc(Cl)cc2)[C@@]1(O)Cn1cncn1 (relative stereo) [Compound (1(+)), (1,2-cis, 1,3-cis)-3-(4-chlorobenzyl)-2-hydroxy-1-methyl-2-(1H-1,2,4-triazole-1-ylmethyl)cyclopentanecarboxylic acid methyl ester]
Preventative Value (%) (Botrytis cinerea [1]; sample conc. 12.5 mg/L): 0% | Preventative Value (%) (Botrytis cinerea [1]; sample conc. 50.0 mg/L): 17.6% | Preventative Value (%) (powdery mildew; sample conc. 12.5 mg/L): 24% | Preventative Value (%) (powdery mildew; sample conc. 50.0 mg/L): 94% | Preventative Value (%) (wheat leaf rust; sample conc. 0.8 mg/L): 0% | Preventative Value (%) (wheat leaf rust; sample conc. 3.1 mg/L): 0% | Preventative Value (%) (wheat brown rust; seed treatment 2 g ai/100 kg seeds): 0% | Preventative Value (%) (wheat brown rust; seed treatment 20 g ai/100 kg seeds): 5% | Antifungal Index of Each Strain P.n (Phaeosphaeria nodorum; Sample Conc. 1.25 mg/L): 2 (70%-60%) | Antifungal Index of Each Strain P.n (Phaeosphaeria nodorum; Sample Conc. 2.5 mg/L): 2 (70%-60%) | Antifungal Index of Each Strain P.n (Phaeosphaeria nodorum; Sample Conc. 5 mg/L): 2 (70%-60%) | Antifungal Index of Each Strain P.h ([2]; Sample Conc. 1.25 mg/L): 1 (<60%) | Antifungal Index of Each Strain P.h ([2]; Sample Conc. 2.5 mg/L): 1 (<60%) | Antifungal Index of Each Strain P.h ([2]; Sample Conc. 5 mg/L): 1 (<60%) | Antifungal Index of Each Strain M.n (Microdochium nivale; Sample Conc. 1.25 mg/L): 1 (<60%) | Antifungal Index of Each Strain M.n (Microdochium nivale; Sample Conc. 2.5 mg/L): 1 (<60%) | Antifungal Index of Each Strain M.n (Microdochium nivale; Sample Conc. 5 mg/L): 1 (<60%) | Antifungal Index of Each Strain G.g (Gaeumannomyces graminis; Sample Conc. 1.25 mg/L): 1 (<60%) | Antifungal Index of Each Strain G.g (Gaeumannomyces graminis; Sample Conc. 2.5 mg/L): 2 (70%-60%) | Antifungal Index of Each Strain G.g (Gaeumannomyces graminis; Sample Conc. 5 mg/L): 4 (90%-80%) | Antifungal Index of Each Strain F.g (Fusarium graminearum; Sample Conc. 1.25 mg/L): 1 (<60%) | Antifungal Index of Each Strain F.g (Fusarium graminearum; Sample Conc. 2.5 mg/L): 1 (<60%) | Antifungal Index of Each Strain F.g (Fusarium graminearum; Sample Conc. 5 mg/L): 2 (70%-60%) | Antifungal Index of Each Strain U.n (Ustilago nuda; Sample Conc. 1.25 mg/L): 2 (70%-60%) | Antifungal Index of Each Strain U.n (Ustilago nuda; Sample Conc. 2.5 mg/L): 3 (80%-70%) | Antifungal Index of Each Strain U.n (Ustilago nuda; Sample Conc. 5 mg/L): 4 (90%-80%) | Antifungal Index of Each Strain P.o (Pyricularia oryzae; Sample Conc. 1.25 mg/L): 1 (<60%) | Antifungal Index of Each Strain P.o (Pyricularia oryzae; Sample Conc. 2.5 mg/L): 2 (70%-60%) | Antifungal Index of Each Strain P.o (Pyricularia oryzae; Sample Conc. 5 mg/L): 5 (>90%) | Antifungal Index of Each Strain R.s (Rhizoctonia solani; Sample Conc. 1.25 mg/L): 2 (70%-60%) | Antifungal Index of Each Strain R.s (Rhizoctonia solani; Sample Conc. 2.5 mg/L): 2 (70%-60%) | Antifungal Index of Each Strain R.s (Rhizoctonia solani; Sample Conc. 5 mg/L): 4 (90%-80%) | Antifungal Index of Each Strain G.f (Gibberella fujikuroi; Sample Conc. 1.25 mg/L): 1 (<60%) | Antifungal Index of Each Strain G.f (Gibberella fujikuroi; Sample Conc. 2.5 mg/L): 2 (70%-60%) | Antifungal Index of Each Strain G.f (Gibberella fujikuroi; Sample Conc. 5 mg/L): 3 (80%-70%) | Antifungal Index of Each Strain R.o (Rhizopus oryzae; Sample Conc. 1.25 mg/L): 1 (<60%) | Antifungal Index of Each Strain R.o (Rhizopus oryzae; Sample Conc. 2.5 mg/L): 1 (<60%) | Antifungal Index of Each Strain R.o (Rhizopus oryzae; Sample Conc. 5 mg/L): 1 (<60%) | Antifungal Index of Each Strain A.m (Alternaria alternata; Sample Conc. 1.25 mg/L): 1 (<60%) | Antifungal Index of Each Strain A.m (Alternaria alternata; Sample Conc. 2.5 mg/L): 2 (70%-60%) | Antifungal Index of Each Strain A.m (Alternaria alternata; Sample Conc. 5 mg/L): 3 (80%-70%) | Antifungal Index of Each Strain S.s (Sclerotinia sclerotiorum; Sample Conc. 1.25 mg/L): 1 (<60%) | Antifungal Index of Each Strain S.s (Sclerotinia sclerotiorum; Sample Conc. 2.5 mg/L): 1 (<60%) | Antifungal Index of Each Strain S.s (Sclerotinia sclerotiorum; Sample Conc. 5 mg/L): 1 (<60%) | Antifungal Index of Each Strain B.c (Botrytis cinerea [3]; Sample Conc. 1.25 mg/L): 1 (<60%) | Antifungal Index of Each Strain B.c (Botrytis cinerea [3]; Sample Conc. 2.5 mg/L): 1 (<60%) | Antifungal Index of Each Strain B.c (Botrytis cinerea [3]; Sample Conc. 5 mg/L): 4 (90%-80%) | Antifungal Index of Each Strain G.c (Glomerella cingurata; Sample Conc. 1.25 mg/L): 1 (<60%) | Antifungal Index of Each Strain G.c (Glomerella cingurata; Sample Conc. 2.5 mg/L): 1 (<60%) | Antifungal Index of Each Strain G.c (Glomerella cingurata; Sample Conc. 5 mg/L): 2 (70%-60%) | Antifungal Index of Each Strain F.c (Fusarium oxysporum; Sample Conc. 1.25 mg/L): 2 (70%-60%) | Antifungal Index of Each Strain F.c (Fusarium oxysporum; Sample Conc. 2.5 mg/L): 3 (80%-70%) | Antifungal Index of Each Strain F.c (Fusarium oxysporum; Sample Conc. 5 mg/L): 4 (90%-80%) | Antifungal Index of Each Strain P.g (Pyrenophora graminea; Sample Conc. 0.08 mg/L): 1 (<60%) | Antifungal Index of Each Strain P.g (Pyrenophora graminea; Sample Conc. 0.16 mg/L): 1 (<60%) | Antifungal Index of Each Strain P.g (Pyrenophora graminea; Sample Conc. 0.31 mg/L): 4 (90%-80%) | Antifungal Index of Each Strain P.g (Pyrenophora graminea; Sample Conc. 0.63 mg/L): 5 (>90%) | Antifungal Index of Each Strain P.i (Penicillium italicum; Sample Conc. 0.08 mg/L): 1 (<60%) | Antifungal Index of Each Strain P.i (Penicillium italicum; Sample Conc. 0.16 mg/L): 1 (<60%) | Antifungal Index of Each Strain P.i (Penicillium italicum; Sample Conc. 0.31 mg/L): 1 (<60%) | Antifungal Index of Each Strain P.i (Penicillium italicum; Sample Conc. 0.63 mg/L): 2 (70%-60%) | Antifungal Index of Each Strain C.b (Cercospora beticola; Sample Conc. 0.08 mg/L): 1 (<60%) | Antifungal Index of Each Strain C.b (Cercospora beticola; Sample Conc. 0.16 mg/L): 2 (70%-60%) | Antifungal Index of Each Strain C.b (Cercospora beticola; Sample Conc. 0.31 mg/L): 3 (80%-70%) | Antifungal Index of Each Strain C.b (Cercospora beticola; Sample Conc. 0.63 mg/L): 4 (90%-80%) | Antifungal Index of Each Strain R.sec (Rhynchosporium secalis; Sample Conc. 0.08 mg/L): 3 (80%-70%) | Antifungal Index of Each Strain R.sec (Rhynchosporium secalis; Sample Conc. 0.16 mg/L): 5 (>90%) | Antifungal Index of Each Strain R.sec (Rhynchosporium secalis; Sample Conc. 0.31 mg/L): 5 (>90%) | Antifungal Index of Each Strain R.sec (Rhynchosporium secalis; Sample Conc. 0.63 mg/L): 5 (>90%) | Average Plant Length (cm) (wheat; wheat seed treatment 2 g ai/100 kg seeds): 22 cm | Average Plant Length (cm) (wheat; wheat seed treatment 20 g ai/100 kg seeds): 14 cm | filamentous fungi inhibition rate R [4]: ≥ 80% | Antifungal Index ([5]; sample conc. 0.31 mg/L): 3 (80%-70%) | Antifungal Index ([5]; sample conc. 0.63 mg/L): 3 (80%-70%) | Antifungal Index ([5]; sample conc. 1.25 mg/L): 5 (>90%) | Preventative Value (%) (wheat leaf blight; sample conc. 12.5 mg/L): 67.5% | Preventative Value (%) (wheat leaf blight; sample conc. 50 mg/L): 77.5%
